Reference: ChEMBL document CHEMBL6103545, “Discovery of GS-2278, a Potent and Selective LPAR1 Antagonist for the Treatment of Idiopathic Pulmonary Fibrosis” (J Med Chem, 2025)

Assays:
[1] = target: T1, Lysophosphatidic acid receptor 1 (Homo sapiens, UniProt Q92633); assay: Antagonist activity at LPA1 receptor in serum starved human TWNT-4 cells assessed as nuclear translocation pre-incubated for 1 hr followed by LPA stimulation and measured after 30 min by MRTF-A assay; type: cell-based
[2] = Plasma protein binding in human assessed as unbound fraction incubated for 24 hrs by equilibrium dialysis based Rapidfire-QToF mass spectrometric analysis; type: ADME, cell-free
[3] = Metabolic stability in Beagle dog liver microsomes assessed as intrinsic clearance at 1 uM by LC/MS/MS analysis; type: ADME, Canis lupus familiaris, Microsome; conditions: read-out: CLH (converted)
[4] = Volume of distribution in cynomolgus monkey at 1 mg/kg, iv measured after 24 hrs by LC/MS/MS analysis; type: ADME, organism-based, Macaca fascicularis; conditions: in vivo
[5] = AUC (0 to 24 hrs) in male Sprague-Dawley rat at 5 mg/kg, po measured after 24 hrs by LC/MS/MS analysis; type: ADME, organism-based; conditions: in vivo
[6] = AUC (0 to 24 hrs) in cynomolgus monkey at 5 mg/kg, po measured after 24 hrs by LC/MS/MS analysis; type: ADME, organism-based, Macaca fascicularis; conditions: in vivo
[7] = Half-life in male Sprague-Dawley rat at 5 mg/kg, po measured after 24 hrs by LC/MS/MS analysis; type: ADME, organism-based; conditions: in vivo
[8] = Drug metabolism in female CD-1 mouse assessed as (R)-1-(2,5-Difluoropyridin-3-yl)ethyl (4-(5-Acetamidopyridin-2-yl)-1-methyl-1H-1,2,3-triazol-5-yl)carbamate metabolite formation at 1 uM by LC/MS/MS analysis; type: ADME
[9] = target: T1, Lysophosphatidic acid receptor 1; assay: Displacement of [3H]LPA from human LPA1 receptor overexpressed in CHO cell membrane assessed as inhibition constant incubated for 90 min by competitive radioligand binding assay; type: cell membranes
[10] = target: T1, Lysophosphatidic acid receptor 1; assay: Antagonist activity at human LPA1 receptor expressed in HEK293 cells assessed as Galpha12 effector recruitment incubated for 10 mins by BRET assay; type: functional, cell-based
[11] = target: T1, Lysophosphatidic acid receptor 1; assay: Antagonist activity at human LPA1 receptor expressed in HEK293 cells assessed as Galpha13 effector recruitment incubated for 10 mins by BRET assay; type: functional, cell-based
[12] = target: T1, Lysophosphatidic acid receptor 1; assay: Antagonist activity at human wild-type LPA1 receptor expressed in HEK293 cells assessed as internalization incubated for 30 mins by BRET assay; type: cell-based
[13] = target: T1, Lysophosphatidic acid receptor 1; assay: Antagonist activity at human LPA1 receptor expressed in HEK293 cells assessed as Galpha15 effector recruitment incubated for 10 mins by BRET assay; type: functional, cell-based
[14] = target: T1, Lysophosphatidic acid receptor 1; assay: Antagonist activity at LPA1 receptor in serum starved human Primary lung fibroblast cells pre-incubated for 1 hr followed by LPA stimulation and measured after 30 min by MRTF-A assay; type: cell-based
P-gp (human) [15] = assay: Apparent permeability from apical to basolateral side of human P-gp transfected MDCK cells measured after 20 min by LC/MS/MS analysis; type: ADME, cell-based, Canis lupus familiaris; conditions: dog, MDCK-MDR1
P-gp (human) [16] = assay: Apparent permeability from basolateral to apical side of human P-gp transfected MDCK cells measured after 20 min by LC/MS/MS analysis; type: ADME, cell-based, Canis lupus familiaris; conditions: dog, MDCK-MDR1
[17] = target: Voltage-gated inwardly rectifying potassium channel KCNH2 (Homo sapiens, UniProt Q12809); assay: Inhibition of human ERG; type: toxicity
Sequence of Voltage-gated inwardly rectifying potassium channel KCNH2 (Q12809 whole entry): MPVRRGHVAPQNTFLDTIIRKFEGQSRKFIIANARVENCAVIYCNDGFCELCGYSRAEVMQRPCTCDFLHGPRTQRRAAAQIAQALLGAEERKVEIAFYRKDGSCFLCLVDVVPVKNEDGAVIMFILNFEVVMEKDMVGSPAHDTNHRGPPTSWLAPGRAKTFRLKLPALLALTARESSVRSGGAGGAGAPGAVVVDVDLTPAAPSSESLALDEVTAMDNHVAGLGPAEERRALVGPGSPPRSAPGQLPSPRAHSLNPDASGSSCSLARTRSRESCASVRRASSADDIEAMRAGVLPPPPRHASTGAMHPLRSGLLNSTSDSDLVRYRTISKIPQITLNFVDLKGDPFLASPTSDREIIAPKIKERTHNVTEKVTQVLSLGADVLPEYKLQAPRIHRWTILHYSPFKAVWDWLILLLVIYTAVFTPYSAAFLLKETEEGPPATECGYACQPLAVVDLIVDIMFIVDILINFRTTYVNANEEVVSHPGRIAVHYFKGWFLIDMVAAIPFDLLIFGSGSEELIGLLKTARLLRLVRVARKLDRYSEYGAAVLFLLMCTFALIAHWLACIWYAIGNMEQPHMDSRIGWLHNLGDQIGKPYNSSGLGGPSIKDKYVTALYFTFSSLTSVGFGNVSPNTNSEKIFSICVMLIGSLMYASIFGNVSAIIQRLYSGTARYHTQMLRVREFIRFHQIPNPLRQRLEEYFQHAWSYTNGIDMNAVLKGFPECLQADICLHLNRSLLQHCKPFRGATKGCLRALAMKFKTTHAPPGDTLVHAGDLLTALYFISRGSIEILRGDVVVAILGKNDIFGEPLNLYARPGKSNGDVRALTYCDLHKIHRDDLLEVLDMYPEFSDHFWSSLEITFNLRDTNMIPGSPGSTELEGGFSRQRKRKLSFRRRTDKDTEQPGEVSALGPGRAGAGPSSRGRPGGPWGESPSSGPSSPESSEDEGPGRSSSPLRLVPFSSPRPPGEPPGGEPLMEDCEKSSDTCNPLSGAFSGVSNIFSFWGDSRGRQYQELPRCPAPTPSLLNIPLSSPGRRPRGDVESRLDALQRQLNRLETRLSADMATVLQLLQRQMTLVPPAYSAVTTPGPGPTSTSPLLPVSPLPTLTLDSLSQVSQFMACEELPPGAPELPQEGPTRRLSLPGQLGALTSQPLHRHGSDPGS

Cytochrome P450 1A2 = target: T2, Cytochrome P450 1A2 (Homo sapiens, UniProt P05177); assay: Inhibition of CYP1A2 (unknown origin) using midazolam as substrate; type: ADME
T2 sequence (P05177 whole entry): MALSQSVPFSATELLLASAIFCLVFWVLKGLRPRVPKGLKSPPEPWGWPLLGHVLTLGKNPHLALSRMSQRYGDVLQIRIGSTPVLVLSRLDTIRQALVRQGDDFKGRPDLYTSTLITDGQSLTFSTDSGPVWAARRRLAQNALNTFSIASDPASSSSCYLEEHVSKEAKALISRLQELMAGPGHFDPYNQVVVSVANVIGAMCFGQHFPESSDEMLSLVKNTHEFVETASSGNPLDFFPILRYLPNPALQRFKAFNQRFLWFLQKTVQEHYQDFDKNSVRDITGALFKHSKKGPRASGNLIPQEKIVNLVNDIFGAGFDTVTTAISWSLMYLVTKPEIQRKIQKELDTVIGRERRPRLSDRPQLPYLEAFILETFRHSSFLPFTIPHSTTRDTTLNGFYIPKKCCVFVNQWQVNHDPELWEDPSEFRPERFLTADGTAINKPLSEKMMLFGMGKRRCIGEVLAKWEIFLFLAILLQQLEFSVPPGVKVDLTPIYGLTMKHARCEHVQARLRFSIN

Cytochrome P450 2C8 = target: T3, Cytochrome P450 2C8 (Homo sapiens, UniProt P10632); assay: Inhibition of CYP2C8 (unknown origin) using midazolam as substrate; type: ADME
T3 sequence (P10632 whole entry): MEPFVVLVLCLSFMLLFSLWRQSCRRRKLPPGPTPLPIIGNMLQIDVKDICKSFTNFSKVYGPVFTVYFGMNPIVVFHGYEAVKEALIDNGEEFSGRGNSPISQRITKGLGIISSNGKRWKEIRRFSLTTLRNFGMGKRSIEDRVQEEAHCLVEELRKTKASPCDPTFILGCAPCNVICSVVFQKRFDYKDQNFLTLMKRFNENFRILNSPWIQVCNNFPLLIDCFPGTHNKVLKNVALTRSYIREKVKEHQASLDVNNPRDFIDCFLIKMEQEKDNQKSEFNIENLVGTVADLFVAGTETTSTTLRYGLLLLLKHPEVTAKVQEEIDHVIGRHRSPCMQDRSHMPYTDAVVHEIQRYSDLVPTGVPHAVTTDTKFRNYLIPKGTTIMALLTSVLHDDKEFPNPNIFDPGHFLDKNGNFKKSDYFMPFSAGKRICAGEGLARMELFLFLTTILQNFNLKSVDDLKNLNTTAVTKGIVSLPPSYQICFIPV

Cytochrome P450 2D6 = Cytochrome P450 2D6 (Homo sapiens, UniProt P10635); assay: Inhibition of CYP2D6 (unknown origin) using midazolam as substrate; type: ADME
Sequence of Cytochrome P450 2D6 (P10635 whole entry): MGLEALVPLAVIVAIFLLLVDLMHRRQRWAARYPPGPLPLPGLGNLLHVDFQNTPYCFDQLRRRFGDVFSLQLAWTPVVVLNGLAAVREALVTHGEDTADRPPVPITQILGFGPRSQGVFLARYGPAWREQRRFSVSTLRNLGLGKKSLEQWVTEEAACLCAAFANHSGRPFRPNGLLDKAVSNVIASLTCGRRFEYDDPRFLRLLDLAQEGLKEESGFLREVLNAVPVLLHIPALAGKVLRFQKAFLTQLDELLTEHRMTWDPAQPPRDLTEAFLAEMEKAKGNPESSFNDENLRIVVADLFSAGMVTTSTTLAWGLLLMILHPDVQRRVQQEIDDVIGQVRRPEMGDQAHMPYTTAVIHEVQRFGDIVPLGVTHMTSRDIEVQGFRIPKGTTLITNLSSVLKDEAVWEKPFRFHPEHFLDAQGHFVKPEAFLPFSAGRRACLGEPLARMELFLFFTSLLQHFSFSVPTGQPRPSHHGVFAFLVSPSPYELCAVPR

Cytochrome P450 3A = Cytochrome P450 3A (Homo sapiens, UniProt P08684+P20815+Q9HB55+P24462); assay: Inhibition of CYP3A (unknown origin) using midazolam as substrate; type: ADME, protein assay
[18] = Toxicity in Beagle dog CNS at 20 mg/kg/day, po measured after 28 days by radiotelemetry; type: organism-based, Canis lupus familiaris; conditions: in vivo, 672 h, time 28 day
[19] = Toxicity in Beagle dog CNS at 30 mg/kg/day, po measured after 28 days by radiotelemetry; type: organism-based, Canis lupus familiaris; conditions: in vivo, 672 h, time 28 day

T1 sequence (Q92633 whole entry): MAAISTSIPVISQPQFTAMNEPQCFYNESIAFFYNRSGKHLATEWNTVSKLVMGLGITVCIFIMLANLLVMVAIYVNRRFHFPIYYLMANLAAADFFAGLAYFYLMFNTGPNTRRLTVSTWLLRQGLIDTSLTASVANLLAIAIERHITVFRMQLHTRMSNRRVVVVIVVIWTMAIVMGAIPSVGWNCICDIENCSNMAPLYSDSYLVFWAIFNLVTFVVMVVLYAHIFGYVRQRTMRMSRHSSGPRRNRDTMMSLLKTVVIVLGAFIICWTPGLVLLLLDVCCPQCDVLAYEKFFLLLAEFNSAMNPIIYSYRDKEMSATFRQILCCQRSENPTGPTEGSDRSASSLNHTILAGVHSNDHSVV

- EC50 [1]: 12 nM
- CLint scaled at 1 µM [3]: 1.5 mL/min/kg
- Vd [4]: 0.8 L/kg
- AUC(0-t) at 24 h [5]: 5.1 µM·h
- AUC(0-t) at 24 h [6]: 8.9 µM·h
- half-life [7]: 3.9 h
- Drug metabolism [8]: metabolite_detected
- Ki [9]: 60 nM
- EC50 [10]: 107 nM
- EC50 [11]: 71 nM
- EC50 [12]: 11.7 nM
- EC50 [13]: 46.1 nM
- EC50 [14]: 8 nM
- Papp A→B at 20 min (P-gp (human) [15]): 0.3 ×10⁻⁶ cm/s
- Papp B→A at 20 min (P-gp (human) [16]): 11 ×10⁻⁶ cm/s
- inhibition (INH) (Cytochrome P450 1A2): Not_active
- inhibition (INH) (Cytochrome P450 2C8): Not_active
- inhibition (INH) (Cytochrome P450 2D6): Not_active
- inhibition (INH) (Cytochrome P450 3A): Not_active
SMILES: C[C@@H](OC(=O)Nc1c(-c2ccc(NC(=O)c3cnc(C(F)(F)F)nc3)cn2)nnn1C)c1cc(F)cnc1F
- fraction unbound at 24 h [2]: 0.19
- IC50 [17]: > 30000 nM
- Activity [18]: Non-toxic
- Activity [19]: Non-toxic
